Results as given in PubChem BioAssay (NCI).
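Exposure lasted 48 hours, with cells grown in 96-well plates and compounds tested at five concentrations. GI50 = concentration required for 50% inhibition of growth. The concentration for full growth arrest is given as TGI.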 Where a SMILES comes first, the peptide text is derived from it. [ ]: non-standard residue; d: D form. pGlu = O=C1CC[CH](C(=O)O)N1

Experiments:
Assay in all cases: NCI tumour cell line growth inhibition, 48 h
MDA-MB-435 = system: MDA-MB-435
NCI-H23 lung = system: NCI-H23 lung
SN12C renal = system: SN12C renal
LOX IMVI melanoma = system: LOX IMVI melanoma
OVCAR-4 ovarian = system: OVCAR-4 ovarian
SF-268 CNS = system: SF-268 CNS
HOP-62 NSCLC = system: HOP-62 NSCLC
UACC-62 melanoma = system: UACC-62 melanoma
HT29 colon = system: HT29 colon
T-47D breast = system: T-47D breast

| SMILES | TGI (MDA-MB-435) [µM] | TGI (NCI-H23 lung) [µM] | TGI (SN12C renal) [µM] | TGI (LOX IMVI melanoma) [µM] | TGI (OVCAR-4 ovarian) [µM] | TGI (SF-268 CNS) [µM] | TGI (HOP-62 NSCLC) [µM] | TGI (UACC-62 melanoma) [µM] | TGI (HT29 colon) [µM] | GI50 (MDA-MB-435) [µM] | GI50 (NCI-H23 lung) [µM] | GI50 (SN12C renal) [µM] | GI50 (LOX IMVI melanoma) [µM] | GI50 (HOP-62 NSCLC) [µM] | GI50 (UACC-62 melanoma) [µM] | GI50 (HT29 colon) [µM] | GI50 (T-47D breast) [µM] | TGI (T-47D breast) [µM] | GI50 (OVCAR-4 ovarian) [µM] | GI50 (SF-268 CNS) [µM] |
| --- | --- | --- | --- | --- | --- | --- | --- | --- | --- | --- | --- | --- | --- | --- | --- | --- | --- | --- | --- | --- |
| O=C(Nc1ccc([As](=O)(O)O)cc1)Nc1cccc(Cl)c1Cl | > 100 | > 100 | > 100 | > 100 | > 100 | > 100 | > 100 | > 100 | > 100 | – | – | – | – | – | – | – | – | – | – | – |
| COC(=O)NC(=O)c1cn(C2OC(CO)C(O)C2O)c(=O)[nH]c1=O (centres undefined) | – | > 100 | > 100 | > 100 | > 100 | > 100 | > 100 | > 100 | > 100 | – | – | – | – | – | – | – | – | – | – | – |
| Cc1cc(CC(=O)NCCO)n(CCO)c(=O)c1 | – | > 100 | > 100 | > 100 | > 100 | > 100 | > 100 | > 100 | > 100 | – | – | – | – | – | – | – | – | – | – | – |
| Cc1cccc(/C=C/c2c(C(=O)/C=C/c3ccccc3)c(C)nc3ccccc23)c1 | 4.29 | 3.57 | 3.5 | 2.93 | – | – | 3.48 | 3.14 | 16.9 | 1.81 | 1.58 | 1.68 | 1.58 | 1.75 | 1.58 | 2.12 | 1.29 | 3.66 | – | – |
| CCNC(=O)C1CCCN1C(=O)C(CCCN=C(N)N)NC(=O)C(CC(C)C)NC(=O)C(CC(C)C)NC(=O)C(Cc1ccc(O)cc1)NC(=O)C(CO)NC(=O)C(Cc1c[nH]c2ccccc12)NC(=O)C(Cc1cnc[nH]1)NC(=O)C1CCC(=O)N1 (centres undefined) ([pGlu]HWSYLLRP-NHEt; configuration not given here) | > 100 | > 100 | > 100 | > 100 | > 100 | > 100 | > 100 | – | > 100 | > 100 | > 100 | > 100 | > 100 | > 100 | – | > 100 | > 100 | > 100 | > 100 | > 100 |
